Where a SMILES comes first, the peptide text is derived from it. [ ]: non-standard residue; d: D form. The star is where a group is joined. Leu(ol) = CC(C)C[C@H](N)CO; code Z = not defined here; Cbz = O=C(OCc1ccccc1)*; OtBu = CC(C)(C)O*; tBu = CC(C)(C)*
Tested on: rat
Assay: Diuretic, natriuretic and kaliuretic action, Experimental Design 1 (anesthetized rats, continuous NaCl infusion, i.v. bolus)
Format: in vivo
Settings: for Urine / K^+ / Na^+: collection period 90 min; for Urine: control 1.267; for K^+: control 29.5; for Na^+: control 65.2; for Type of action on diuresis, natriuresis and kaliuresis (in words): judged from the data against control
Description: A. […]
Experimental Design 1: The rats were anesthetized with 0.1 ml of 10% strength thiobutabarbital sodium/100 g of body weight i.p. They received an NaCl infusion from 60 min before administration of the substance and continuing during the experiment (2.5 ml of a 0.9% strength NaCl solution .h^-1.0.1 kg^-1 body weight). The test substance was administered as an i.v. bolus in 0.5 ml of a 0.9% strength solution/100 g of body weight.

Compound	Urine (dose 1 mg/kg rat i.v. bolus) [mL/kg]	K^+ (dose 1 mg/kg rat i.v. bolus) [µmol/kg]	Na^+ (dose 1 mg/kg rat i.v. bolus) [µmol/kg]	Type of action on diuresis, natriuresis and kaliuresis (in words)	Urine (dose 1 μg/kg i.v. bolus) [mL/kg]	K^+ (dose 1 μg/kg i.v. bolus) [µmol/kg]	Na^+ (dose 1 μg/kg i.v. bolus) [µmol/kg]
Z-Arg-Ile-Trp-Arg-Ile-OMe ({code Z}-RIWRI-OMe; reading uncertain; also: printed as Z-Arg-Ile-Trp-Arg-Ile-OMe)	1.16	46.2	152.5				
H-RIWRI-OH [H-Arg-Ile-Trp-Arg-Ile-OH]	0.67	57.5	112.8				
H-RIFRI-OH [H-Arg-Ile-Phe-Arg-Ile-OH]	2.00	68.3	211.0				
H-RPVKV-OH [H-Arg-Pro-Val-Lys-Val-OH]	0.91	28.2	155.7	potassium-retaining natriuretics			
H-RID(OtBu)R[Leu(ol)]	1.55	64.2	180.8				
Cbz-RID(OtBu)RI-NH2	1.51	63.3	263.2				
CC[C@H](C)[C@H](NC(=O)[C@H](CCCNC(=N)N)NC(=O)[C@H](Cc1c[nH]c2ccccc12)NC(=O)[C@@H](NC(=O)[C@H](CCCNC(=N)N)NC(=O)OCc1ccccc1)[C@@H](C)CC)C(=O)O [Z-Arg-Ile-Trp-Arg-Ile-OH] (Cbz-RIWRI-OH)	1.64	37.1	208.6				
Z-Arg-Ile-Asp(OtBu)-Arg-Ile-ol				antidiuretics with a natriuretic action	0.79	27.8	118.4
CC[C@H](C)[C@H](NC(=O)[C@H](CCCNC(=N)N)NC(=O)[C@H](COC(C)(C)C)NC(=O)[C@@H](NC(=O)[C@@H](N)CCCNC(=N)N)[C@@H](C)CC)C(=O)O [H-Arg-Ile-Ser(tBu)-Arg-Ile-OH] (H-RIS(tBu)RI-OH)	1.19	28.4	74.5				
H-RILRI-OH [H-Arg-Ile-Leu-Arg-Ile-OH]	2.03	50.1	149.8				
CC[C@H](C)[C@H](NC(=O)[C@H](CCCNC(=N)N)NC(=O)[C@@H](COC(C)(C)C)NC(=O)[C@@H](NC(=O)[C@@H](N)CCCNC(=N)N)[C@@H](C)CC)C(=O)O [H-Arg-Ile-D-Ser(tBu)-Arg-Ile-OH] (H-RI[dS](tBu)RI-OH)	0.95	44.3	87.0				

Source: patent US5011825A, “Peptides influencing diuresis and natriuresis, a process for their preparation, agents containing them, and their use” (Hoechst Aktiengesellschaft, priority 1986, dated 1991)
